US9695156B2, “Compounds for the treatment and prevention of infections” (Brown University, priority 2012, dated 2017)

What was measured:
BKPyV [1] = assay: Endocytosis assay, trypan blue quenching, confocal microscopy; assay type: cell-based, BK polyomavirus; settings: 100 μM Retro-2, 100 μM nystatin; fixed at 2 h
SV40 [2] = assay: as above; assay type: cell-based, simian virus 40; settings: 100 μM Retro-2, 100 μM nystatin; fixed at 2 h
CTxB [3] = assay type: cell-based
JCPyV [4] = assay: Dose dependent inhibition of infection, flow cytometric scoring, SVG-A cells; assay type: cell-based, JC polyomavirus; settings: for inhibition of JCPyV infection (FIG. 8C): 100 μM, SVG-A cells pre-incubated, flow cytometry
[5] = Conversion (cyclization) of Retro-2 in solution; assay type: physicochemical
JCPyV [6] = assay: Endocytosis assay, trypan blue quenching, confocal microscopy; assay type: cell-based, JC polyomavirus; settings: 100 μM Retro-2, 30 μM chloropromazine; fixed at 2 h
BKPyV [7] = assay: ER trafficking assay, colocalization with PDI; assay type: cell-based, BK polyomavirus
JCPyV [8] = assay: ER trafficking assay, colocalization with PDI; assay type: cell-based, JC polyomavirus
CTxB [9] = assay type: cell-based; remark: listed apart in the source
SV40 [10] = assay: ER trafficking assay, colocalization with PDI; assay type: cell-based, simian virus 40
JCPyV [11] = assay: VP2 release assay; assay type: cell-based, JC polyomavirus; settings: 100 μM Retro-2, 500 ng/mL brefeldin A; MOI 10, 10 hpi
BKPyV [12] = assay: VP2 release assay; assay type: cell-based, BK polyomavirus; settings: 100 μM Retro-2, 500 ng/mL brefeldin A; MOI 10, 10 hpi
SV40 [13] = assay: VP2 release assay; assay type: cell-based, simian virus 40; settings: 100 μM Retro-2, 500 ng/mL brefeldin A; MOI 10, 10 hpi
cells = settings: cited from earlier work
BKPyV [14] = assay: Dose dependent inhibition of infection, flow cytometric scoring, Vero cells; assay type: cell-based, BK polyomavirus; settings: Betapolyomavirus hominis, VP1 at 72 h, compared to vehicle control, read-out: calculated EC50, decrease in percentage of cells expressing VP1
SV40 [15] = assay: Time course (time of addition) experiment, Vero cells; assay type: cell-based, simian virus 40
Ad5-GFP pseudovirus = assay type: cell-based, Adenovirus Type 5; settings: Vero cells pre-treated, GFP positive cells by flow cytometry
SV40 [16] = assay: Dose dependent inhibition of infection, flow cytometric scoring, Vero cells; assay type: cell-based, simian virus 40; settings: Betapolyomavirus macacae, VP1 at 72 h, compared to vehicle control, read-out: calculated EC50, decrease in percentage of cells expressing VP1
JCPyV [17] = assay: Time course (time of addition) experiment, SVG-A cells; assay type: cell-based, JC polyomavirus
BKPyV [18] = assay: Multicycle growth assay and reinfection assay in established infection, Vero cells; assay type: cell-based, BK polyomavirus
Stx2 = settings: cited from earlier work
BKPyV [19] = assay: Binding of labeled virus to Vero cells, flow cytometry; assay type: cell-based, BK polyomavirus; settings: 100 μM, 1 h pretreatment
SV40 [20] = assay: as above; assay type: cell-based, simian virus 40; settings: 100 μM, 1 h pretreatment
JCPyV [21] = assay: Multicycle growth assay and reinfection assay in established infection, SVG-A cells; assay type: cell-based, JC polyomavirus
SVG-A or Vero cells = assay type: cell-based
Experimental: The viability of SVG-A or Vero cells were first tested after treatment with Retro-2^cycl. Cells were treated with Retro-2^cycl at the indicated concentrations for 72 h before viability was assessed using the CellTiter 96 AQueous One Solution Cell Proliferation Assay. As a control, cells were treated with either 0.04% DMSO or with 10% SDS. Error bars denote standard deviation.

SV40 [22] = assay: Multicycle growth assay and reinfection assay in established infection, Vero cells; assay type: cell-based, simian virus 40
BKPyV [23] = assay: Time course (time of addition) experiment, Vero cells; assay type: cell-based, BK polyomavirus
[24] = 100 μM, re-fed daily, 12 days post infection, MOI 0.01

Structure (SMILES): C[C@@H]1[C@H](O)[C@@H](C)/C=C/C=C/CC/C=C/C=C/C=C/C=C/C(O[C@H]2O[C@H](C)[C@@H](O)[C@H](N)[C@@H]2O)CC2O[C@](O)(CC(O)C(O)CCC(O)CC(O)CC(O)CC(=O)O[C@H]1C)CC(O)C2C(=O)O (stereo partly drawn) [nystatin, reference compound]
- inhibition of endocytosis (BKPyV [1]): inhibits endocytosis
- inhibition of endocytosis (SV40 [2]): inhibits endocytosis
- inhibition of endocytosis (CTxB [3]): inhibits endocytosis

Structure (SMILES): Cc1ccc(CNc2ccccc2C(=O)Nc2ccccc2)s1 [Retro-2^red]
- inhibition of JCPyV infection (FIG. 8C) (JCPyV [4]): significantly less active

Structure (SMILES): Cc1ccc(/C=N/c2ccccc2C(=O)Nc2ccccc2)s1 [Retro-2, 2-(((5-methylthiophen-2-yl)methylene)amino)-N-phenylbenzamide]
- conversion to Retro-2^cycl in solution [5]: rapidly converts

Structure (SMILES): CN(C)CCCN1c2ccccc2Sc2ccc(Cl)cc21 [chloropromazine, reference compound]
- inhibition of endocytosis (JCPyV [6]): inhibits endocytosis

Structure (SMILES): Cc1ccc(/C=N/c2cccc(C(=O)Nc3ccccc3)c2)s1 [Retro-2^meta]
- colocalization with the ER protein PDI (BKPyV [7]): significant colocalization
- colocalization with the ER protein PDI (JCPyV [8]): significant colocalization
- colocalization with the ER protein PDI (CTxB [9]): significant colocalization
- inhibition of JCPyV infection (FIG. 8C) (JCPyV [4]): significantly less active
- colocalization with the ER protein PDI (SV40 [10]): significant colocalization

Structure (SMILES): CCc1ccc(C2Nc3ccccc3C(=O)N2c2ccccc2)s1 (stereo not drawn) [BU62382A4]
- potency against polyomavirus infectivity relative to Retro-2^cycl (JCPyV [4]; preliminary SAR, ethyl instead of methyl at position 5 of thiophenyl ring): does not negatively impact potency

Structure (SMILES): C[C@H]1CCC/C=C/[C@@H]2C[C@H](O)C[C@H]2[C@H](O)/C=C/C(=O)O1 [brefeldin A, reference compound]
- colocalization with the ER protein PDI (BKPyV [7]): significantly reduces colocalization
- cells exposing VP2 (JCPyV [11]): significant reduction in the number of cells with VP2 exposed
- cells exposing VP2 (BKPyV [12]): significant reduction in the number of cells with VP2 exposed
- cells exposing VP2 (SV40 [13]): significant reduction in the number of cells with VP2 exposed
- colocalization with the ER protein PDI (JCPyV [8]): significantly reduces colocalization
- cytotoxicity to cells (cells): highly cytotoxic
- colocalization with the ER protein PDI (CTxB [9]): significantly reduces colocalization
- reduction in infectivity (JCPyV [4]; 20 ng/mL, SVG-A cells, positive control): 96%
- colocalization with the ER protein PDI (SV40 [10]): reduced, although this reduction was not significant

Structure (SMILES): Cc1ccc(C2Nc3ccccc3C(=O)N2c2ccccc2)s1 (stereo not drawn) [Retro-2^cycl, 2-(5-methylthiophen-2-yl)-3-phenyl-2,3-dihydroquinazolin-4(1H)-one]
- colocalization with the ER protein PDI (BKPyV [7]): significantly reduces colocalization
- cells exposing VP2 (JCPyV [11]): significant reduction of cells exposing VP2
- EC50 (BKPyV [14]): 61.2 µM
- infectivity regained when compound is added late (SV40 [15]): greater than 80%
- time of addition after which most of the inhibitory effect is lost (SV40 [15]): > 12 h
- time of addition at which infectivity is still significantly reduced (SV40 [15]): up to 4 hours post infection (hpi)
- inhibition of Ad5-GFP transduction (Ad5-GFP pseudovirus): did not inhibit transduction
- EC50 (SV40 [16]): 58.6 µM
- inhibition of endocytosis (BKPyV [1]): does not inhibit endocytosis
- infectivity regained when compound is added late (JCPyV [17]): greater than 80%
- time of addition after which most of the inhibitory effect is lost (JCPyV [17]): > 14 h
- time of addition at which infectivity is still significantly reduced (JCPyV [17]): up to 4 hours post infection (hpi)
- cells exposing VP2 (BKPyV [12]): significant reduction of cells exposing VP2
- inhibition of viral spread (percentage of infected cells vs vehicle control) (BKPyV [18]; [24]): 89%
- infectious virions in tissue culture supernatant (reinfection of naive cells) (BKPyV [18]; cultures treated with 100 μM): significantly less infectious virions
- cells exposing VP2 (SV40 [13]): significant reduction of cells exposing VP2
- inhibition of endocytosis (SV40 [2]): does not inhibit endocytosis
- inhibition of endocytosis (CTxB [3]): does not inhibit endocytosis
- protection of cells from toxin (Stx2): able to protect cells
- binding to cells compared to vehicle control (BKPyV [19]): slight decreases
- co-localization of JCV-633 with Rab5 endosomes (JCPyV [8]): increases co-localization
- colocalization with the ER protein PDI (JCPyV [8]): significantly reduces colocalization
- binding to cells compared to vehicle control (SV40 [20]): slight decreases
- inhibition of viral spread (percentage of infected cells vs vehicle control) (JCPyV [21]; [24]): 90.5%
- infectious virions in tissue culture supernatant (reinfection of naive cells) (JCPyV [21]; cultures treated with 100 μM): significantly less infectious virions
- cytopathic effect in JCV infected SVG-A cells (JCPyV [21]; phase contrast microscopy at 15 days post infection, vs DMSO): reduces cytopathic effect
- cell viability at effective doses (SVG-A or Vero cells): do not negatively affect cell viability
- colocalization with the ER protein PDI (CTxB [9]): significantly reduces colocalization
- inhibition of endocytosis (JCPyV [6]): does not inhibit endocytosis
- EC50 (JCPyV [4]; JC polyomavirus, SVG-A cells, VP1 at 72 h, compared to vehicle control, read-out: calculated EC50, decrease in percentage of cells expressing VP1): 28.4 µM
- inhibition of viral spread (percentage of infected cells vs vehicle control) (SV40 [22]; [24]): 84%
- infectious virions in tissue culture supernatant (reinfection of naive cells) (SV40 [22]; cultures treated with 100 μM): significantly less infectious virions
- infectivity regained when compound is added late (BKPyV [23]): greater than 80%
- time of addition after which most of the inhibitory effect is lost (BKPyV [23]): > 12 h
- time of addition at which infectivity is still significantly reduced (BKPyV [23]): up to 4 hours post infection (hpi)
- colocalization with the ER protein PDI (SV40 [10]): reduced, although this reduction was not significant
